Measurements as given in patent US11135244B2, “Stem cell culture media and methods of enhancing cell survival” (Fate Therapeutics, Inc., priority 2013, dated 2021).

Tests used:
[1] = tested on: CXCR4 surface protein within Lin-CD45lowCD34+7AAD- cells; experiment: CXCR4 surface protein on cord blood mononuclear cells after dmPGE2 treatment; format: cell-based; conditions: 10 μM dmPGE2 two hours at 37° C., then additional one hour incubation without dmPGE2
Protocol: Cord blood mononuclear cells (All Cells, Emeryville, Calif.) were thawed in a 37° C. water bath and immediately diluted with 10 mL of pre-warmed IMDM with 10% fetal calf serum and 5 uL of DNase (Life Technologies, Grand Island, N.Y.). The cells were split three ways and centrifuged at 300×g for 10 minutes. The cells were resuspended in STEMSPAN-ACF (Media 1), STEMSPAN-ACF with 5% Dextran-40 (Media 2) or STEMSPAN-ACF with 10% Dextran-40 (Media 3). A subset, 1×10^6 cells, from Media 1 were kept at 4° C. and immediately stained with Lineage Mix-FITC, CXCR4-PE, CD34-APC, and CD45-V450 antibodies from BD Biosciences. All 3 media conditions were split into a vehicle-treated cohort and a 10 μM dmPGE2-treated cohort and incubated at 37° C. for 2 hours. The cells were washed with the same media and incubated at 37° C. for an additional 1 hour. Each cohort was stained with the same antibodies as indicated above. Levels of CXCR4 surface protein within the Lin-CD45^lowCD34+7AAD-cells were analyzed.

[2] = tested on: CXCR4 gene expression; experiment: CXCR4 gene expression after incubation with dmPGE2; format: cell-based; conditions: 10 μM dmPGE2 for two hours at 37° C.

CCCCC(C)(C)[C@H](O)/C=C/[C@H]1[C@H](O)CC(=O)[C@@H]1C/C=C\CCCC(=O)O [dmPGE2, 16,16-dimethyl PGE2]
CXCR4 surface protein [1]: increased
CXCR4 gene expression [2]: increased
